ChEMBL document CHEMBL1132806, “Anti-HIV activity of a series of cosalane amino acid conjugates” (Bioorg Med Chem Lett, 2000)

Tests used:
MT4 [1] = assay: Tested for inhibition of cytopathic effect of HIV-2ROD in MT-4 cells; type: functional, cell-based; conditions: Homo sapiens
[2] = Cytotoxicity of compound was tested as concentration required for 50% reduction in cellular viability in MT-4 cells; type: cell-based, MT4; conditions: human
[3] = Cytotoxicity of compound was tested as concentration required for 50% reduction in cellular viability in CEM-SS cells; type: cell-based; conditions: human
MT4 [4] = assay: Tested for inhibition of cytopathic effect of HIV-1 IIIB in MT-4 cells; type: functional, cell-based; conditions: Homo sapiens
CEM-SS = assay: Tested for inhibition of cytopathic effect of HIV-1RF in CEM-SS cells; type: functional, cell-based; conditions: Homo sapiens

SMILES | EC50 (MT4 [1]) [µM] | CC50 [2] [µM] | CC50 [3] [µM] | EC50 (MT4 [4]) [µM] | EC50 (CEM-SS) [µM]
CC(C)CCCC(C)[C@H]1CC[C@H]2[C@@H]3CCC4C[C@@H](CCC=C(c5cc(Cl)c(O)c(C(=O)NCC(=O)OC(C)(C)C)c5)c5cc(Cl)c(O)c(C(=O)NCC(=O)OC(C)(C)C)c5)CC[C@]4(C)[C@H]3CC[C@]12C (stereo partly specified) | > 125 | > 125 | > 125 | > 125 | 
CC(C)CCCC(C)[C@H]1CC[C@H]2[C@@H]3CCC4C[C@@H](CCCC(c5cc(Cl)c(O)c(C(=O)NCC(=O)O)c5)c5cc(Cl)c(O)c(C(=O)NCC(=O)O)c5)CC[C@]4(C)[C@H]3CC[C@]12C (stereo partly specified) | > 125 | > 125 | > 200 | 34.8 | 4.5
CC(C)CCCC(C)[C@H]1CC[C@H]2[C@@H]3CCC4C[C@@H](CCCC(c5cc(Cl)c(O)c(C(=O)N[C@@H](CCC(=O)O)C(=O)O)c5)c5cc(Cl)c(O)c(C(=O)N[C@@H](CCC(=O)O)C(=O)O)c5)CC[C@]4(C)[C@H]3CC[C@]12C (stereo partly specified) | 75.2 | > 125 | 34 | 10.6 | 11.6
CC(C)CCCC(C)[C@H]1CC[C@H]2[C@@H]3CCC4C[C@@H](CCC=C(c5cc(Cl)c(O)c(C(=O)O)c5)c5cc(Cl)c(O)c(C(=O)O)c5)CC[C@]4(C)[C@H]3CC[C@]12C (stereo partly specified) |  | > 200 | > 200 |  | 
CC(C)CCCC(C)[C@H]1CC[C@H]2[C@@H]3CCC4C[C@@H](CCC=C(c5cc(Cl)c(O)c(C(=O)N[C@@H](CC(=O)O)C(=O)O)c5)c5cc(Cl)c(O)c(C(=O)N[C@@H](CC(=O)O)C(=O)O)c5)CC[C@]4(C)[C@H]3CC[C@]12C (stereo partly specified) | 122 | > 125 | 90 | 16.6 | 10.7
CC(C)CCCC(C)[C@H]1CC[C@H]2[C@@H]3CCC4C[C@@H](CCC=C(c5cc(Cl)c(O)c(C(=O)N[C@@H](CC(C)C)C(=O)O)c5)c5cc(Cl)c(O)c(C(=O)N[C@@H](CC(C)C)C(=O)O)c5)CC[C@]4(C)[C@H]3CC[C@]12C (stereo partly specified) | > 125 | > 125 | > 200 | 63 | 40
CC(C)CCCC(C)[C@H]1CC[C@H]2[C@@H]3CCC4C[C@@H](CCC=C(c5cc(Cl)c(O)c(C(=O)N[C@@H](CCC(=O)O)C(=O)O)c5)c5cc(Cl)c(O)c(C(=O)N[C@@H](CCC(=O)O)C(=O)O)c5)CC[C@]4(C)[C@H]3CC[C@]12C (stereo partly specified) | 71.6 | > 125 | 82 | 9.2 | 1.1
CC(C)CCCC(C)[C@H]1CC[C@H]2[C@@H]3CCC4C[C@@H](CCC=C(c5cc(Cl)c(O)c(C(=O)NCCC(=O)O)c5)c5cc(Cl)c(O)c(C(=O)NCCC(=O)O)c5)CC[C@]4(C)[C@H]3CC[C@]12C (stereo partly specified) | 120 | > 125 | > 200 | 75.3 | 34.7
CC(C)CCCC(C)[C@H]1CC[C@H]2[C@@H]3CCC4C[C@@H](CCC=C(c5cc(Cl)c(O)c(C(=O)NCC(=O)O)c5)c5cc(Cl)c(O)c(C(=O)NCC(=O)O)c5)CC[C@]4(C)[C@H]3CC[C@]12C (stereo partly specified) | > 125 | > 125 | > 200 | 50.8 | 3.44
CC(C)CCCC(C)[C@H]1CC[C@H]2[C@@H]3CCC4C[C@@H](CCC=C(c5cc(Cl)c(O)c(C(=O)N[C@@H](Cc6ccccc6)C(=O)O)c5)c5cc(Cl)c(O)c(C(=O)N[C@@H](Cc6ccccc6)C(=O)O)c5)CC[C@]4(C)[C@H]3CC[C@]12C (stereo partly specified) | > 62 | 62 | > 200 | > 62 | > 200
